What was measured:
[1] = target: T1, 5-hydroxytryptamine receptor 7 (Homo sapiens, UniProt P34969); test: Displacement of [3H]-5-HT from human 5-HT7 receptor expressed in CHOK1 cell membranes after 30 mins by liquid scintillation spectrometry
[2] = target: T2, 5-hydroxytryptamine receptor 1A (Homo sapiens, UniProt P08908); test: Displacement of [3H]-8-OH-DPAT from human 5-HT1A receptor expressed in CHOK1 cell membranes after 30 mins by liquid scintillation spectrometry
T2 sequence (P08908 whole entry): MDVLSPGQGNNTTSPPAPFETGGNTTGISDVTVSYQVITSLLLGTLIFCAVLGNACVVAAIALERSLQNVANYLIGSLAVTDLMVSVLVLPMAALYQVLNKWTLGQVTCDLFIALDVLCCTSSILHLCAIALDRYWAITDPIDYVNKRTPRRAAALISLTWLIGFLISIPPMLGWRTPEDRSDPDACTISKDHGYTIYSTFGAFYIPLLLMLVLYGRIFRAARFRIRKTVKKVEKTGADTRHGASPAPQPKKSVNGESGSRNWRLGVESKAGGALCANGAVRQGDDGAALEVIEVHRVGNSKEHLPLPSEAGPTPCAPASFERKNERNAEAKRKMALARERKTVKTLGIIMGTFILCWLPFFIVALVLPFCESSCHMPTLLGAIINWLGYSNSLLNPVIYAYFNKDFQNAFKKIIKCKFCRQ

[3] = target: T1, 5-hydroxytryptamine receptor 7; test: Displacement of [3H]-5-HT from human 5-HT7 receptor expressed in CHOK1 cell membranes at 10^-5M after 30 mins by liquid scintillation spectrometry
[4] = target: T3, 5-hydroxytryptamine receptor 1A (Homo sapiens) (UniProt P08908); test: Displacement of [3H]-8-OH-DPAT from human 5-HT1A receptor expressed in CHOK1 cell membranes at 10^-5M after 30 mins by liquid scintillation spectrometry
T3 sequence (whole entry): T2 sequence (P08908 whole entry)

[5] = Dissociation constant, pKa of the compound at pH 7.4; assay type: physicochemical

T1 sequence (P34969 whole entry): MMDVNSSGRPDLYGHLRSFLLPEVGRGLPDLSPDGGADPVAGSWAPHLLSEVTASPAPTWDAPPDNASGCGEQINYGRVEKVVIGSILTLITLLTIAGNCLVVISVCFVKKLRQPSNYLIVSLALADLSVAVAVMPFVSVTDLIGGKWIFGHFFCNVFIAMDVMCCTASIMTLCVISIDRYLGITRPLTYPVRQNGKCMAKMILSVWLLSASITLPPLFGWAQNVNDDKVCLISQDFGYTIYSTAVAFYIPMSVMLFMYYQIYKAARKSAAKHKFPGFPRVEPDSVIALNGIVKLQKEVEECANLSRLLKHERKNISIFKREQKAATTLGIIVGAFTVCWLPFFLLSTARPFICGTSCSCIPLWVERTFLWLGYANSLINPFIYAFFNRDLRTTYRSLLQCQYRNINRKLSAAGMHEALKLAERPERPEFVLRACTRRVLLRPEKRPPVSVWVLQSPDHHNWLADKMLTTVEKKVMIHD

Row | SMILES | Ki [1] [nM] | Ki [2] [nM] | inhibition [3] [%] | inhibition [4] [%] | pKa [5]
1 | O=C(CCN1CCN(c2cccc(Cl)c2)CC1)N1CCN(c2cccc(Cl)c2)CC1 | 2760 | 142 | – | – | –
2 | O=C(CCN1CCN(c2ccccc2)CC1)N1CCN(c2cccc(Cl)c2)CC1 | – | 1070 | < 50 | – | –
3 | O=C(CCN1CCN(Cc2ccccc2)CC1)NCc1ccccc1 | 4.34 | 0.34 | – | – | –
4 | CCOc1ccccc1N1CCN(CCC(=O)N2CCN(c3cccc(Cl)c3)CC2)CC1 | 119 | 15.2 | – | – | –
5 | O=C(CCCCN1CCN(c2ccccc2)CC1)N1CCN(c2ccccc2)CC1 | 197 | 350 | – | – | –
6 | O=C(CCN1CCN(c2ccc(Cl)cc2)CC1)N1CCN(c2cccc(Cl)c2)CC1 | 2370 | 302 | – | – | –
7 | O=C(CCNCc1ccccc1)NCc1ccccc1 | 176 | 3750 | – | – | –
8 | O=C(CCN1CCN(Cc2ccccc2)CC1)N1CCN(c2ncccn2)CC1 | 23.5 | – | – | < 50 | –
9 | O=C(CCN1CCN(c2cccc(Cl)c2)CC1)N1CCN(c2ccccc2)CC1 | 32.7 | 33.5 | – | – | –
10 | O=C(CCNCc1ccccc1)N1CCN(c2ccccc2)CC1 | – | 938 | < 50 | – | –
11 | O=C(CCN1CCN(c2ccccc2)CC1)N1CCN(c2ccccc2)CC1 | 26.2 | 272 | – | – | 8.11
12 | O=C(CCN1CCN(Cc2ccccc2)CC1)N1CCN(c2ccccc2Cl)CC1 | 50.2 | – | – | < 50 | –
13 | O=C(CCN1CCN(Cc2ccccc2)CC1)N1CCN(c2ccccc2)CC1 | 52 | – | – | < 50 | 8.55
14 | COc1ccc(N2CCN(C(=O)CCN3CCN(Cc4ccccc4)CC3)CC2)cc1 | – | – | < 50 | < 50 | –
15 | CCOc1ccccc1N1CCN(CCC(=O)N2CCN(c3ccccc3)CC2)CC1 | 80.3 | 81.8 | – | – | –
16 | O=C(CCN1CCN(Cc2ccccc2)CC1)N1CCN(c2ccccn2)CC1 | 29.5 | – | – | < 50 | –
17 | O=C(CCN1CCN(c2ccc(Cl)cc2)CC1)N1CCN(c2ccccc2)CC1 | 462 | 1680 | – | – | –
18 | COc1ccccc1N1CCN(C(=O)CCN2CCN(Cc3ccccc3)CC2)CC1 | 24.2 | – | – | < 50 | –
19 | O=C(CCN1CCN(Cc2ccccc2)CC1)N1CCN(c2ccc(Cl)cc2)CC1 | 36.6 | – | – | < 50 | –
20 | O=C(CCN1CCN(Cc2ccccc2)CC1)N1CCN(c2cccc(Cl)c2)CC1 | 54.7 | 101 | – | – | –

From ChEMBL document CHEMBL4425143, “Design and synthesis of new homo and hetero bis-piperazinyl-1-propanone derivatives as 5-HT7R selective ligands over 5-HT1AR” (Bioorg Med Chem Lett, 2016)
